# B1: Vibrio sp. strain EJY3 α-L-fucosidase VeFUC (VEJY3_11310, UniProt H2IHW9.1), wild type, SEQ ID NO: 1 (Vibrio sp. EJY3) (protein)
# chain: MTKPTAGELTGTSSQATSQLDNRNAFTGVSKQGLNRWKKNTFGMFIHWGLYCHRDLAGYYQGQYYDIISEWLPHFARIPMRDYKEYASDFNPSEFDADQVTALAKTAGMNYMVVTAKHHDGFAMYHSPSHPFNITDATPFKRDPVAELSQSCRHKDLDFGLYYSHVIDWENENAVSKAPNDWDFNPDQANYQEYWNNKCLPQVNELLEQYGDLCSLWFDMGGFDVQEEADHVRRIGELMALIRKKQPDAVVNSRVTAPECEYQLDWDIKTGHDNYMEPLYIKPYYWEGIATSNDNWGYSRNDNNTKSSKDLINQLCSVVSRGGNFLLNITLDHNGRIPQSLVRLLSEIGQWMQVNQEAVIDTEATPLQTGFNWGVVTHRPATNKLYLHVQRQPEQNVICLHSLNNRIKQVRLLDNQIKGHVSYLQKTHTDTGITASTLNLQLGHNYDRMPLVIELEYDGELDINPIVHQDRLAKVRLDTLNIAHFDPEKLTYRWTFQIQSPGRFALDLVSLETMHHKDPQWVHNGKTGRISCGGQSWEFELNLDKTDTNDAQVPWKNIHSRLGELHFPQAGEYTLEFSELPLAIDQSEKYGQDYINLEYLQLGPRLA
# Columns and labels:
# [1] = tested on: Alf1_Wf bacterial fucosidase, Wenyingzhuangia fucanilytica; details: Table 1; Dong 2017; cited from earlier work
# [2] = tested on: AlfC bacterial fucosidase, L. casei; parameters: Vmax: unit not given here; details: Table 1; Rodriguez-Diaz 2011; cited from earlier work
# [3] = tested on: AlfA bacterial fucosidase, Lactobacillus casei; details: Table 1; Rodriguez-Diaz 2011; cited from earlier work
# [4] = tested on: TM0306 bacterial fucosidase, T. maritima; details: Table 1, Sulzenbacher 2004, cited from earlier work
# [5] = tested on: aLfuk1 bacterial fucosidase; details: Table 1; Benesova 2013; cited from earlier work
# [6] = tested on: TfFuc1 bacterial fucosidase, Tannerella forsythia; details: Table 1; Megson 2015; cited from earlier work
# [7] = tested on: BT_2970 bacterial fucosidase; details: Table 1; Sakurama 2012; cited from earlier work
# [8] = tested on: BT_2970 bacterial fucosidase, B. subtilis thetaiotaomicron; details: Table 1; Sakurama 2012; cited from earlier work
# [9] = tested on: AlfB bacterial fucosidase, L. casei; parameters: Vmax: unit not given here; details: Table 1; Rodriguez-Diaz 2011; cited from earlier work
# [10] = tested on: XCC2888 bacterial fucosidase, Xanthomonas campestris; details: Table 1, Dupoiron 2015, cited from earlier work
# [11] = target: Vibrio sp. strain EJY3 α-L-fucosidase VeFUC (VEJY3_11310, UniProt H2IHW9.1), wild type, SEQ ID NO: 1 (Vibrio sp. EJY3, UniProt A0ACD6BAZ0); test: Kinetic parameters of VeFUC for pNP-α-L-Fuc; type: biochemical; details: Table 1, Present invention
# Experimental: Genomic DNA of Vibrio sp. strain EJY3 for cloning a gene encoding VeFUC was prepared as follows: Vibrio sp. strain EJY3 was cultured in a minimum medium consisting of 23 g/L Instant Ocean Sea Salt (Aquarium Systems, Mentor, OH, USA), 50 mM Tris-HCl (pH 7.4), 2 g/L glucose, 1 g/L yeast extract and 0.5 g/L ammonium chloride at 303 K and 200 rpm for 18 hours. The genomic DNA was extracted from a culture using the DNeasy Blood & Tissue Kit (Qiagen, Valencia, CA, USA) according to the manufacturer's protocol. A target gene, VEJY3_11310 (UniProt accession no. H2IHW9.1) was amplified by PCR using the following primers. The underlined parts are BamHI and XhoI restriction enzyme sites; […]
# (§1) Recombinant E. coli loaded with the pET21a-VeFUC plasmid was grown at 310 K and 200 rpm until an absorbance measured at 600 nm in a culture Luria-Bertani (LB) broth containing 100 mg L^−1 ampicillin reached 0.6. […] The concentrated enzyme solution was analyzed by bicinchoninic acid (BCA) protein analysis (Thermo Fisher Scientific, Waltham, MA) and 12% (w/v) SDS-PAGE gel electrophoresis to determine the concentration, size and purity of the target protein.
# (§2) The reaction was terminated by adding 500 μl of 1 M sodium carbonate thereto, and the absorbance of the reaction mixture was quantified by spectrophotometry at 405 nm. […]
# [12] = substrate: C[C@@H]1O[C@@H](Oc2ccc([N+](=O)[O-])cc2)[C@@H](O)[C@H](O)[C@@H]1O; test: Kinetic parameters of VeFUC for pNP-α-L-Fuc; type: biochemical, Vibrio sp. strain EJY3; details: other: text, 313 K, 10 mM sodium acetate buffer (pH 6.0), Lineweaver-Burk plot, 40.0 °C
# Experimental: Genomic DNA of Vibrio sp. strain EJY3 for cloning a gene encoding VeFUC was prepared as follows: Vibrio sp. strain EJY3 was cultured in a minimum medium consisting of 23 g/L Instant Ocean Sea Salt (Aquarium Systems, Mentor, OH, USA), 50 mM Tris-HCl (pH 7.4), 2 g/L glucose, 1 g/L yeast extract and 0.5 g/L ammonium chloride at 303 K and 200 rpm for 18 hours. The genomic DNA was extracted from a culture using the DNeasy Blood & Tissue Kit (Qiagen, Valencia, CA, USA) according to the manufacturer's protocol. A target gene, VEJY3_11310 (UniProt accession no. H2IHW9.1) was amplified by PCR using the following primers. The underlined parts are BamHI and XhoI restriction enzyme sites;
# Recombinant proteins were purified using a HisTrap column (GE Healthcare, Piscataway, NJ, USA) by adding sequences encoding 6 histidines to the reverse primer. A PCR product was treated with BamHI and XhoI restriction enzymes and subsequently ligated to a pET-21a plasmid (Novagen, Darmstadt, Germany) to construct a PET21a-VeFUC plasmid.
# as §1, §2
# In order to measure the kinetic parameters of VeFUC for pNP-α-L-Fuc, enzymatic reactions were performed at different concentrations of pNP-α-L-Fuc in a range of 0.109 to 0.875 mM under the same conditions described above. Vmax, Km and kcat, which are enzyme kinetic parameters of VeFUC were measured from a Lineweaver-Burk plot. […]
molecule,measurement,setting,value
"C[C@@H]1O[C@@H](Oc2ccc([N+](=O)[O-])cc2)[C@@H](O)[C@H](O)[C@@H]1O [pNP-α-L-Fuc, p-nitrophenyl-α-L-fucopyranoside]",Kcat,[1],5.44 s⁻¹
same,Km,[1],3300 ± 420 µM
same,Vmax,[1],4.75
same,Km,[2],5300 µM
same,Vmax,[2],22.2
same,Km,[3],270 µM
same,Km,[4],34 ± 2 µM
same,Kcat,[4]; in 1/s,5.4 ± 0.2
same,Km,[5],440 ± 20 µM
same,Km,[6],670 ± 200 µM
same,Vmax,[6],20.4
same,Kcat,[7],1.3 s⁻¹
same,Km,[8],1500 µM
same,Km,[9],2900 µM
same,Vmax,[9],6
same,Km,[10],700 ± 100 µM
same,Kcat,[10]; in 1/s,6.1 ± 2.0
same,Vmax,[11],24.8 ± 0.9
same,Kcat,[11]; in 1/s,4.81 ± 1.8
B1,Km,[12],6340 ± 480 µM
same,Vmax,[12],24.8±0.9 U mg^−1 protein
same,kcat,[12],4.81 ± 1.8 s⁻¹

# — patent US12410419B2, “Use of enzyme that cleaves both alpha- and beta- 1,4-glycosidic bonds” (Korea University Research and Business Foundation, priority 2019, dated 2025)
